Laboratory results: the kinase profiling compilation of Christmann-Franck et al. (2016)

Assays:
Assay in all cases: KINOMEscan competition binding
Conditions in all cases: compound 10.0 µM
ACVR1B (human) = ACVR1B (human) (UniProt P36896)
BMPR2 (human) = BMPR2 (human) (UniProt Q13873)
[1] = tested on: BMX (human), P51813 [V600E]
BRSK1 (human) = BRSK1 (human) (UniProt Q8TDC3)
CAMKK1 (human) = CAMKK1 (human) (UniProt Q8N5S9)
CAMKK2 (human) = CAMKK2 (human) (UniProt Q96RR4)
CPK1 (P.falciparum) = tested on: CPK1 (P.falciparum)
DAPK3 (human) = DAPK3 (human) (UniProt O43293)
DDR2 (human) = DDR2 (human) (UniProt Q16832)
EPHA7 (human) = EPHA7 (human) (UniProt Q15375)
[2] = tested on: FGFR3 (human), P22607 [G697C]
FGFR4 (human) = FGFR4 (human) (UniProt P22455)
FLT1 (human) = FLT1 (human) (UniProt P17948)
GRK4 (human) = GRK4 (human) (UniProt P32298)
IRAK3 (human) = IRAK3 (human) (UniProt Q9Y616)
MAP2K4 (human) = MAP2K4 (human) (UniProt P45985)
MAP2K7 (human) = MAP2K7 (human) (UniProt O14733)
MAP3K10 (human) = MAP3K10 (human) (UniProt Q02779)
MAPK12 (human) = MAPK12 (human) (UniProt P53778)
MAPK7 (human) = MAPK7 (human) (UniProt Q13164)
MARK1 (human) = MARK1 (human) (UniProt Q9P0L2)
MLTK (human) = MLTK (human) (UniProt Q9NYL2)
NEK9 (human) = NEK9 (human) (UniProt Q8TD19)
OXSR1 (human) = OXSR1 (human) (UniProt O95747)
PAK6 (human) = PAK6 (human) (UniProt Q9NQU5)
PHKG2 (human) = PHKG2 (human) (UniProt P15735)
PIK3C2B (human) = PIK3C2B (human) (UniProt O00750)
[3] = tested on: PIK3CA (human), P42336 [E542K]
PIK3CD (human) = PIK3CD (human) (UniProt O00329)
PIP4K2C (human) = PIP4K2C (human) (UniProt Q8TBX8)
PLK2 (human) = PLK2 (human) (UniProt Q9NYY3)
PLK3 (human) = PLK3 (human) (UniProt Q9H4B4)
RIOK2 (human) = RIOK2 (human) (UniProt Q9BVS4)
RIPK2 (human) = RIPK2 (human) (UniProt O43353)
RPS6KA4 KD1 (human) = RPS6KA4 KD1 (human) (UniProt O75676)
SIK1 (human) = SIK1 (human) (UniProt P57059)
STK3 (human) = STK3 (human) (UniProt Q13188)
TIE1 (human) = TIE1 (human) (UniProt P35590)
TNK2 (human) = TNK2 (human) (UniProt Q07912)
YSK4 (human) = YSK4 (human) (UniProt Q56UN5)

RPS6KA4 KD1 (human), sequence (O75676 whole entry, looked up): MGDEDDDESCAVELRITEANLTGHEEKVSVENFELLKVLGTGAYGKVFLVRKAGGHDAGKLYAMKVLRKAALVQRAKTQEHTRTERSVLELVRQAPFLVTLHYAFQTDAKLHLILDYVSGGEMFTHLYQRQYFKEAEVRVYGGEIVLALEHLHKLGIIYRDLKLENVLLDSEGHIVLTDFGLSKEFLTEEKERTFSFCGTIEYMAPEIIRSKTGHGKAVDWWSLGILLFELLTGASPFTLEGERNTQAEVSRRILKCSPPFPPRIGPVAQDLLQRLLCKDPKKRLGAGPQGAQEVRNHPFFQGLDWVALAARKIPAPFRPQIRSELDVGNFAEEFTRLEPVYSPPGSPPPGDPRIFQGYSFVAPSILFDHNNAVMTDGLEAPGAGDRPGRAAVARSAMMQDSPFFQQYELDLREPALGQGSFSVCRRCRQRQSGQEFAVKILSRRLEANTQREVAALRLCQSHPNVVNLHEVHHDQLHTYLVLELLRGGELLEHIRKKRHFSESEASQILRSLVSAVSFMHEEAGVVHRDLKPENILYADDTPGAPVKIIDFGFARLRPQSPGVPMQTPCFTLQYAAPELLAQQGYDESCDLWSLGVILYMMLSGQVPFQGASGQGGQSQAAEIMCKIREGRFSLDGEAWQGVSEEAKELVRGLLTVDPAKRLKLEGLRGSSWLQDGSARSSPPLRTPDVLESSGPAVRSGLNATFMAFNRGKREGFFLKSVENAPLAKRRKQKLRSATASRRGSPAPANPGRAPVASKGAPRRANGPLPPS
OXSR1 (human), sequence (O95747 whole entry, looked up): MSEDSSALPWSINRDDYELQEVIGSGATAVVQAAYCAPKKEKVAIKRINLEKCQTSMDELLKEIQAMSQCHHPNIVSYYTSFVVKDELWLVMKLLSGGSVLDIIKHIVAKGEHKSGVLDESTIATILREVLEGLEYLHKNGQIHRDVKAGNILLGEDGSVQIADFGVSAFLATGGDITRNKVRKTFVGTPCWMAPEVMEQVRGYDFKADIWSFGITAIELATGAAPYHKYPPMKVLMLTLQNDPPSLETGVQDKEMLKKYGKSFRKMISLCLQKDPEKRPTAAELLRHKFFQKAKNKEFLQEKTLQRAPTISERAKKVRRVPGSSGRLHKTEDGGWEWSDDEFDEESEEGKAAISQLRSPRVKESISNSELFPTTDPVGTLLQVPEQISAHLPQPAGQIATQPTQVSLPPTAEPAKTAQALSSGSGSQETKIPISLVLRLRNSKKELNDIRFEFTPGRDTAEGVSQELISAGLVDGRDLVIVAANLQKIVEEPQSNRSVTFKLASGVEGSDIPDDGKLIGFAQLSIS
BRSK1 (human), sequence (Q8TDC3 whole entry, looked up): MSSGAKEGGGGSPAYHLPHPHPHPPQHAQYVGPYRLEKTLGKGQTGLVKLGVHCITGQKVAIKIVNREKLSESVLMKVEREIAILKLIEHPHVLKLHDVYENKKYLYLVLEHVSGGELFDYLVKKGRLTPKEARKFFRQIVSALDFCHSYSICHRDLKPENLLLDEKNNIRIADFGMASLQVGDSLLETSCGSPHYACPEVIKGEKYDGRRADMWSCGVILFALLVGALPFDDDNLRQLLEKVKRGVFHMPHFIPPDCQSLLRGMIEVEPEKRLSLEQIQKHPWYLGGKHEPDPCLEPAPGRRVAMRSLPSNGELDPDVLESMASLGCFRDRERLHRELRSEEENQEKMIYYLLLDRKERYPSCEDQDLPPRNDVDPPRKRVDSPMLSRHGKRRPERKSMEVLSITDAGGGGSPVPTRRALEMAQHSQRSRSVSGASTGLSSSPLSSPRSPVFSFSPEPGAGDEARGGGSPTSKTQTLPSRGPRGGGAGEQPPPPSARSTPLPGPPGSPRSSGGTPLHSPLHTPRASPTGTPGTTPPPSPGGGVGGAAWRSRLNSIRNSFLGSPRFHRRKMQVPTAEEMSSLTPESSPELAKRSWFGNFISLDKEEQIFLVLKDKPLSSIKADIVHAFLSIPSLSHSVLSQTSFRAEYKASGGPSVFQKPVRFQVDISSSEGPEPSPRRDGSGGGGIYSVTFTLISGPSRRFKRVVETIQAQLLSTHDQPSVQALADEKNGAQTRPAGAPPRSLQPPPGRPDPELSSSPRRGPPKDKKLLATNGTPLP
MAP2K7 (human), sequence (O14733 whole entry, looked up): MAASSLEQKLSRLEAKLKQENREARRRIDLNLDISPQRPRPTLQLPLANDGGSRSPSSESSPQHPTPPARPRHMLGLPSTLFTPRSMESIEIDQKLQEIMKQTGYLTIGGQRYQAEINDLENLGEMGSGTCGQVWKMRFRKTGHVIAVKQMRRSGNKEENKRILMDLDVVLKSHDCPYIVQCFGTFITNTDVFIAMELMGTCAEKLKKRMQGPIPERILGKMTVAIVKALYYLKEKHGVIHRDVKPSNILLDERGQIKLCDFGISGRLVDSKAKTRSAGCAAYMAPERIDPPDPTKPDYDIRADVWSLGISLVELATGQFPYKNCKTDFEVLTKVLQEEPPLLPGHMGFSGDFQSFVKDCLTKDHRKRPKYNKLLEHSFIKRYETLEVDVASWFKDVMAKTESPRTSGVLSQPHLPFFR
EPHA7 (human), sequence (Q15375 whole entry, looked up): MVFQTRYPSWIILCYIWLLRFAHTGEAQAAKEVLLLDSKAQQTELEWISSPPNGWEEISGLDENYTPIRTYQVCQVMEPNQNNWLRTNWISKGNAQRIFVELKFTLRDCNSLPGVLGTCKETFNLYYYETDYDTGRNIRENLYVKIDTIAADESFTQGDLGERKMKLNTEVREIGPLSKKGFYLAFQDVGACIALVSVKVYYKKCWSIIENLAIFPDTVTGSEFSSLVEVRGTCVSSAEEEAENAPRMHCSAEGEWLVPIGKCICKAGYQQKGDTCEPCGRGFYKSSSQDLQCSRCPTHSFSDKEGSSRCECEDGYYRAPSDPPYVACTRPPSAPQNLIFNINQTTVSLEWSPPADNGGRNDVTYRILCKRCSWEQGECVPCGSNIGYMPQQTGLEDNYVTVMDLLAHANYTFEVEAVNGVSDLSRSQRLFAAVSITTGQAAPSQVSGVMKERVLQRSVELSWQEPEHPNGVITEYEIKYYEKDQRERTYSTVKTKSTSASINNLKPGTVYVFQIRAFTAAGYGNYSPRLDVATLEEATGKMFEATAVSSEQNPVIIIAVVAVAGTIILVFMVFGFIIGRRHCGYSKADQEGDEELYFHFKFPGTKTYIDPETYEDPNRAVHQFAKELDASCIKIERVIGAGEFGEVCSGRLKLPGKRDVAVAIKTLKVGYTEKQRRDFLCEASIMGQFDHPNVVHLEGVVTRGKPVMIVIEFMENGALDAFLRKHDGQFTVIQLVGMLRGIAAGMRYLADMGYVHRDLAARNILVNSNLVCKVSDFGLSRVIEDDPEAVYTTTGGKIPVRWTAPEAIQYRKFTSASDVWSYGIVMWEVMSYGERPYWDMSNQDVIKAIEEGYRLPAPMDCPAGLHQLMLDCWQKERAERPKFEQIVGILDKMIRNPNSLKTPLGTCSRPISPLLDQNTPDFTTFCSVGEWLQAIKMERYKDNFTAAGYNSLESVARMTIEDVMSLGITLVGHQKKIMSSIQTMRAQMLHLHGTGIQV
MLTK (human), sequence (Q9NYL2 whole entry, looked up): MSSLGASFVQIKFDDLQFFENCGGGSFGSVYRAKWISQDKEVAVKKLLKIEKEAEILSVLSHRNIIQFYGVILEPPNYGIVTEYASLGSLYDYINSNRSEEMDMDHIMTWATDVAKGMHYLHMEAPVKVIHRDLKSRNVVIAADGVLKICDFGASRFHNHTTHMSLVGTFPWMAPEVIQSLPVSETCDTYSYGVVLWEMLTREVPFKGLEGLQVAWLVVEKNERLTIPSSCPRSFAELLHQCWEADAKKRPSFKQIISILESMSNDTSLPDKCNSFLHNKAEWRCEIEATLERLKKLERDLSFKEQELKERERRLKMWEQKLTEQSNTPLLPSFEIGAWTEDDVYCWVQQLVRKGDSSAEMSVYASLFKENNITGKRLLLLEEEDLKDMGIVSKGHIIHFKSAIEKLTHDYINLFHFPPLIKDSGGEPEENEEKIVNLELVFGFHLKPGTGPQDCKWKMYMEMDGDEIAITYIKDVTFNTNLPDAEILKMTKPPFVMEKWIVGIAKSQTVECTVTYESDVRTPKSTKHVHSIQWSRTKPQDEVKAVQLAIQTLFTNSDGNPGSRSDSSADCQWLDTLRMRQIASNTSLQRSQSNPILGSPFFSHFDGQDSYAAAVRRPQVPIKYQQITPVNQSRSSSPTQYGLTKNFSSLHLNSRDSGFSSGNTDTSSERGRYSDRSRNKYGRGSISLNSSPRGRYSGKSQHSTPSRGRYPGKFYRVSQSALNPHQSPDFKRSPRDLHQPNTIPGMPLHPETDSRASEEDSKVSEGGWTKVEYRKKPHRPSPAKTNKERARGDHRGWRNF
CAMKK1 (human), sequence (Q8N5S9 whole entry, looked up): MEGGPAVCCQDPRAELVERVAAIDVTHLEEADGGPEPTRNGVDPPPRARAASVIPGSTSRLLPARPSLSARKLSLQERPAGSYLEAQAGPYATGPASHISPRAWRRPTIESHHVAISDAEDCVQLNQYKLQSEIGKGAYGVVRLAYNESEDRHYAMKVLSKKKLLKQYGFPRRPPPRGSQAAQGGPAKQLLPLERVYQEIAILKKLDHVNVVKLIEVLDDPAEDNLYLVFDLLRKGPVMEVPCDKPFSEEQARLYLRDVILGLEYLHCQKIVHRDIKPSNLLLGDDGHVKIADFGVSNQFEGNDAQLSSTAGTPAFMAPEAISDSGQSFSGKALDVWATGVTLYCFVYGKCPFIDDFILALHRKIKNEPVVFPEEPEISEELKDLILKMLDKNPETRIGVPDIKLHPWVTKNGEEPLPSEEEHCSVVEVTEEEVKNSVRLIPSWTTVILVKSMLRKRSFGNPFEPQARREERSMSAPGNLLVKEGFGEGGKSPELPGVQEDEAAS

| Structure (SMILES) | kinase still bound, per cent of control (ACVR1B (human)) | kinase still bound, per cent of control (BMPR2 (human)) | kinase still bound, per cent of control [1] | kinase still bound, per cent of control (BRSK1 (human)) | kinase still bound, per cent of control (CAMKK1 (human)) | kinase still bound, per cent of control (CAMKK2 (human)) | kinase still bound, per cent of control (CPK1 (P.falciparum)) | kinase still bound, per cent of control (DAPK3 (human)) | kinase still bound, per cent of control (DDR2 (human)) | kinase still bound, per cent of control (EPHA7 (human)) | kinase still bound, per cent of control [2] | kinase still bound, per cent of control (FGFR4 (human)) | kinase still bound, per cent of control (FLT1 (human)) | kinase still bound, per cent of control (GRK4 (human)) | kinase still bound, per cent of control (IRAK3 (human)) | kinase still bound, per cent of control (MAP2K4 (human)) | kinase still bound, per cent of control (MAP2K7 (human)) | kinase still bound, per cent of control (MAP3K10 (human)) | kinase still bound, per cent of control (MAPK12 (human)) | kinase still bound, per cent of control (MAPK7 (human)) | other results |
| --- | --- | --- | --- | --- | --- | --- | --- | --- | --- | --- | --- | --- | --- | --- | --- | --- | --- | --- | --- | --- | --- |
| CC1=C(C(=O)Nc2cc3cn[nH]c3cc2F)C(c2ccc(C(F)(F)F)cc2)CC(=O)N1 (stereo not given) | 94% | 97% | 87% | 93% | 72% | 55% | 82% | 77% | 100% | 80% | 84% | 67% | 77% | 99% | 85% | 71% | 80% | 92% | 79% | 82% | kinase still bound, per cent of control (MARK1 (human)): 100%; kinase still bound, per cent of control (MLTK (human)): 92%; kinase still bound, per cent of control (NEK9 (human)): 89%; kinase still bound, per cent of control (OXSR1 (human)): 92%; kinase still bound, per cent of control (PAK6 (human)): 90%; kinase still bound, per cent of control (PHKG2 (human)): 92%; kinase still bound, per cent of control (PIK3C2B (human)): 100%; kinase still bound, per cent of control [3]: 92%; kinase still bound, per cent of control (PIK3CD (human)): 98%; kinase still bound, per cent of control (PIP4K2C (human)): 98%; kinase still bound, per cent of control (PLK2 (human)): 86%; kinase still bound, per cent of control (PLK3 (human)): 84%; kinase still bound, per cent of control (RIOK2 (human)): 86%; kinase still bound, per cent of control (RIPK2 (human)): 77%; kinase still bound, per cent of control (RPS6KA4 KD1 (human)): 98%; kinase still bound, per cent of control (SIK1 (human)): 77%; kinase still bound, per cent of control (STK3 (human)): 63%; kinase still bound, per cent of control (TIE1 (human)): 75%; kinase still bound, per cent of control (TNK2 (human)): 88%; kinase still bound, per cent of control (YSK4 (human)): 50% |
| N#C/C(=C1/Nc2ccccc2S1)c1ccnc(NCCc2cccnc2)n1 | 84% | 88% | 6.8% | 85% | 83% | 54% | 4.2% | 45% | 100% | 99% | 100% | 100% | 100% | 32% | 38% | 1.1% | 100% | 85% | 13% | 100% | kinase still bound, per cent of control (MARK1 (human)): 100%; kinase still bound, per cent of control (MLTK (human)): 97%; kinase still bound, per cent of control (NEK9 (human)): 90%; kinase still bound, per cent of control (OXSR1 (human)): 62%; kinase still bound, per cent of control (PAK6 (human)): 78%; kinase still bound, per cent of control (PHKG2 (human)): 78%; kinase still bound, per cent of control (PIK3C2B (human)): 19%; kinase still bound, per cent of control [3]: 100%; kinase still bound, per cent of control (PIK3CD (human)): 78%; kinase still bound, per cent of control (PIP4K2C (human)): 3.7%; kinase still bound, per cent of control (PLK2 (human)): 47%; kinase still bound, per cent of control (PLK3 (human)): 12%; kinase still bound, per cent of control (RIOK2 (human)): 2.4%; kinase still bound, per cent of control (RIPK2 (human)): 81%; kinase still bound, per cent of control (RPS6KA4 KD1 (human)): 100%; kinase still bound, per cent of control (SIK1 (human)): 100%; kinase still bound, per cent of control (STK3 (human)): 59%; kinase still bound, per cent of control (TIE1 (human)): 100%; kinase still bound, per cent of control (TNK2 (human)): 91%; kinase still bound, per cent of control (YSK4 (human)): 3.2% |
